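Each compound was tested at five concentrations against cells in 96-well plates for 48 hours. The concentration for full growth arrest is given as TGI.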
Key:
Assay in all cases: inhibition of tumour cell growth, NCI panel, 48 h
[1] = test system: HCC-2998 colon
[2] = test system: SF-268 CNS
[3] = test system: BT-549 breast
[4] = test system: ACHN renal
[5] = test system: MDA-MB-231 breast
[6] = test system: SNB-75 CNS
[7] = test system: MDA-N
[8] = test system: SF-539 CNS
[9] = test system: 786-0 renal
[10] = test system: UACC-257 melanoma
[11] = test system: SF-295 CNS
[12] = test system: HCT-116 colon
[13] = test system: SK-MEL-28 melanoma
[14] = test system: MDA-MB-435
[15] = test system: T-47D breast
[16] = test system: NCI-H226 lung
[17] = test system: CCRF-CEM leukemia
[18] = test system: HL-60(TB) leukemia
[19] = test system: SK-MEL-2 melanoma
[20] = test system: PC-3 prostate
[21] = test system: MALME-3M melanoma
[22] = test system: HS 578T breast
[23] = test system: IGROV1 ovarian
[24] = test system: NCI/ADR-RES ovarian
[25] = test system: DU-145 prostate
[26] = test system: RPMI-8226 leukemia
[27] = test system: LOX IMVI melanoma
[28] = test system: UACC-62 melanoma
[29] = test system: OVCAR-5 ovarian
[30] = test system: UO-31 renal
[31] = test system: EKVX NSCLC
[32] = test system: TK-10 renal
[33] = test system: OVCAR-3 ovarian
[34] = test system: RXF 393 renal
[35] = test system: OVCAR-8 ovarian
[36] = test system: CAKI-1 renal
[37] = test system: OVCAR-4 ovarian
[38] = test system: A498 renal
[39] = test system: SW-620 colon
[40] = test system: NCI-H460 lung
[41] = test system: M14 melanoma
[42] = test system: SK-MEL-5 melanoma
[43] = test system: COLO 205 colon
[44] = test system: SN12C renal
[45] = test system: HOP-92 NSCLC
[46] = test system: SNB-19 CNS
[47] = test system: MCF7 breast
[48] = test system: HCT-15 colon
[49] = test system: MOLT-4 leukemia
[50] = test system: A549 NSCLC
[51] = test system: SR leukemia
[52] = test system: KM12 colon
[53] = test system: U251 CNS
[54] = test system: NCI-H522 lung
[55] = test system: HT29 colon
[56] = test system: K-562 leukemia
[57] = test system: NCI-H23 lung
[58] = test system: HOP-62 NSCLC
[59] = test system: SK-OV-3 ovarian

## Cc1cc(S(=O)(=O)NC2=NCc3c(F)cccc3N2)c(S)cc1Cl
[1]
  TGI: > 100 µM
[2]
  TGI: > 100 µM
[3]
  TGI: > 100 µM
[4]
  TGI: > 100 µM
[5]
  TGI: > 100 µM
[6]
  TGI: > 100 µM
[7]
  TGI: > 100 µM
[8]
  TGI: > 100 µM
[9]
  TGI: > 100 µM
[10]
  TGI: > 100 µM
[11]
  TGI: > 100 µM
[12]
  TGI: > 100 µM
[13]
  TGI: > 100 µM
[14]
  TGI: > 100 µM
[15]
  TGI: > 100 µM
[16]
  TGI: > 100 µM
[17]
  TGI: > 100 µM
[18]
  TGI: > 100 µM
[19]
  TGI: > 100 µM
[20]
  TGI: > 100 µM
[21]
  TGI: > 100 µM
[22]
  TGI: > 100 µM
[23]
  TGI: > 100 µM
[24]
  TGI: > 100 µM
[25]
  TGI: > 100 µM
[26]
  TGI: > 100 µM
[27]
  TGI: > 100 µM
[28]
  TGI: > 100 µM
[29]
  TGI: > 100 µM
[30]
  TGI: > 100 µM
[31]
  TGI: > 100 µM
[32]
  TGI: > 100 µM
[33]
  TGI: > 100 µM
[34]
  TGI: > 100 µM
[35]
  TGI: > 100 µM
[36]
  TGI: > 100 µM
[37]
  TGI: > 100 µM
[38]
  TGI: > 100 µM
[39]
  TGI: > 100 µM
[40]
  TGI: > 100 µM
[41]
  TGI: > 100 µM
[42]
  TGI: > 100 µM
[43]
  TGI: > 100 µM
[44]
  TGI: > 100 µM
[45]
  TGI: > 100 µM
[46]
  TGI: > 100 µM
[47]
  TGI: > 100 µM
[48]
  TGI: > 100 µM
[49]
  TGI: > 100 µM
[50]
  TGI: > 100 µM
[51]
  TGI: > 100 µM
[52]
  TGI: > 100 µM
[53]
  TGI: > 100 µM
[54]
  TGI: > 100 µM

## COC1CCC(OS(C)(=O)=O)C(C)O1 (stereo not drawn)
[1]
  TGI: > 10 µM
[2]
  TGI: > 10 µM
[3]
  TGI: > 10 µM
[4]
  TGI: > 10 µM
[5]
  TGI: > 10 µM
[55]
  TGI: > 10 µM
[6]
  TGI: > 10 µM
[7]
  TGI: > 10 µM
[8]
  TGI: > 10 µM
[9]
  TGI: > 10 µM
[10]
  TGI: > 10 µM
[11]
  TGI: > 10 µM
[12]
  TGI: > 10 µM
[13]
  TGI: > 10 µM
[14]
  TGI: > 10 µM
[56]
  TGI: > 10 µM
[15]
  TGI: > 10 µM
[16]
  TGI: > 10 µM
[17]
  TGI: > 10 µM
[18]
  TGI: > 10 µM
[19]
  TGI: > 10 µM
[20]
  TGI: > 10 µM
[21]
  TGI: > 10 µM
[22]
  TGI: > 10 µM
[23]
  TGI: > 10 µM
[24]
  TGI: > 10 µM
[25]
  TGI: > 10 µM
[26]
  TGI: > 10 µM
[27]
  TGI: > 10 µM
[28]
  TGI: > 10 µM
[29]
  TGI: > 10 µM
[31]
  TGI: > 10 µM
[32]
  TGI: > 10 µM
[33]
  TGI: > 10 µM
[34]
  TGI: > 10 µM
[35]
  TGI: > 10 µM
[36]
  TGI: > 10 µM
[37]
  TGI: > 10 µM
[38]
  TGI: > 10 µM
[39]
  TGI: > 10 µM
[57]
  TGI: > 10 µM
[40]
  TGI: > 10 µM
[41]
  TGI: > 10 µM
[42]
  TGI: > 10 µM
[43]
  TGI: > 10 µM
[44]
  TGI: > 10 µM
[45]
  TGI: > 10 µM
[58]
  TGI: > 10 µM
[46]
  TGI: > 10 µM
[47]
  TGI: > 10 µM
[48]
  TGI: > 10 µM
[49]
  TGI: > 10 µM
[50]
  TGI: > 10 µM
[51]
  TGI: > 10 µM
[52]
  TGI: > 10 µM
[53]
  TGI: > 10 µM
[54]
  TGI: > 10 µM
[59]
  TGI: > 10 µM

## CC1CC[C@@]2(OC1)OC1C[C@H]3[C@@H]4CC=C5C[C@@H](OC6OC(CO)C(OC7OC(CO)C(O)C(O)C7O)C(O)C6OC6OC(C)C(O)C(O)C6O)CC[C@]5(C)[C@H]4CC[C@]3(C)C1[C@@H]2C (stereo partly drawn)
[1]
  TGI: 0.89 µM
[2]
  TGI: 1.2 µM
[3]
  TGI: 0.848 µM
[4]
  TGI: 4.4 µM
[5]
  TGI: 0.918 µM
[55]
  TGI: 0.951 µM
[6]
  TGI: 5.47 µM
[7]
  TGI: 2.34 µM
[8]
  TGI: 0.88 µM
[9]
  TGI: 0.88 µM
[10]
  TGI: 1.02 µM
[11]
  TGI: 5.27 µM
[12]
  TGI: 2.31 µM
[13]
  TGI: 1.02 µM
[14]
  TGI: 1.29 µM
[56]
  TGI: 1.09 µM
[15]
  TGI: 1.21 µM
[16]
  TGI: 1.67 µM
[17]
  TGI: 1.48 µM
[18]
  TGI: 1.97 µM
[19]
  TGI: 3.2 µM
[20]
  TGI: 0.93 µM
[21]
  TGI: 1.33 µM
[22]
  TGI: 1.57 µM
[23]
  TGI: 1.02 µM
[24]
  TGI: 5.71 µM
[25]
  TGI: 0.919 µM
[26]
  TGI: 1.33 µM
[27]
  TGI: 0.852 µM
[28]
  TGI: 0.876 µM
[29]
  TGI: 4.58 µM
[30]
  TGI: 0.887 µM
[31]
  TGI: 1.13 µM
[32]
  TGI: 3.73 µM
[33]
  TGI: 1.7 µM
[34]
  TGI: 0.857 µM
[35]
  TGI: 1.79 µM
[36]
  TGI: 2.71 µM
[37]
  TGI: 5.03 µM
[38]
  TGI: 1.32 µM
[39]
  TGI: 1.51 µM
[57]
  TGI: 2.57 µM
[40]
  TGI: 1.76 µM
[41]
  TGI: 0.859 µM
[42]
  TGI: 0.977 µM
[43]
  TGI: 0.91 µM
[44]
  TGI: 1.52 µM
[45]
  TGI: 2.12 µM
[58]
  TGI: 1.6 µM
[46]
  TGI: 3.92 µM
[47]
  TGI: 1.36 µM
[48]
  TGI: 6.95 µM
[50]
  TGI: 2.15 µM
[51]
  TGI: 0.852 µM
[52]
  TGI: 1.22 µM
[53]
  TGI: 0.923 µM
[54]
  TGI: 2.93 µM
[59]
  TGI: 6.96 µM

## N=C(N)c1ccc(N=Nc2c(O)c(C(=O)Nc3ccccc3)cc3ccccc23)cc1
[1]
  TGI: > 59.7 µM
[2]
  TGI: 55.4 µM
[3]
  TGI: > 100 µM
[4]
  TGI: > 53.6 µM
[5]
  TGI: 22.4 µM
[55]
  TGI: 42.4 µM
[6]
  TGI: 52.2 µM
[7]
  TGI: > 100 µM
[8]
  TGI: 43 µM
[9]
  TGI: 30.2 µM
[10]
  TGI: > 100 µM
[11]
  TGI: > 100 µM
[12]
  TGI: 12.5 µM
[13]
  TGI: > 100 µM
[14]
  TGI: > 100 µM
[56]
  TGI: > 80.4 µM
[15]
  TGI: 38.2 µM
[16]
  TGI: > 100 µM
[17]
  TGI: 5.92 µM
[18]
  TGI: 55.1 µM
[19]
  TGI: > 100 µM
[20]
  TGI: > 89.2 µM
[21]
  TGI: 97.3 µM
[22]
  TGI: > 85.5 µM
[23]
  TGI: > 74.6 µM
[24]
  TGI: > 100 µM
[25]
  TGI: > 100 µM
[26]
  TGI: 77.7 µM
[28]
  TGI: > 100 µM
[29]
  TGI: > 62.4 µM
[30]
  TGI: > 100 µM
[31]
  TGI: 41.9 µM
[32]
  TGI: > 68 µM
[33]
  TGI: > 53.3 µM
[34]
  TGI: > 68.4 µM
[35]
  TGI: 34.5 µM
[36]
  TGI: > 100 µM
[37]
  TGI: 33.1 µM
[38]
  TGI: > 100 µM
[39]
  TGI: > 100 µM
[57]
  TGI: 76.1 µM
[40]
  TGI: > 75.3 µM
[41]
  TGI: > 100 µM
[42]
  TGI: > 49.6 µM
[43]
  TGI: > 76.9 µM
[44]
  TGI: 54.5 µM
[45]
  TGI: 33.8 µM
[58]
  TGI: 41 µM
[46]
  TGI: 51.5 µM
[47]
  TGI: 41.7 µM
[48]
  TGI: > 48.8 µM
[49]
  TGI: 8.33 µM
[50]
  TGI: > 100 µM
[51]
  TGI: > 75.8 µM
[52]
  TGI: 29.9 µM
[53]
  TGI: > 63.1 µM
[54]
  TGI: 34.5 µM
[59]
  TGI: > 90.8 µM
